Measurements taken from patent US6461997B1, “Triazole sulfones having herbicidal activity” (Monsanto Technology LLC, priority 1999, dated 2002).

What was measured:
DIGSA (large crabgrass) [1] = assay: Pre-emergence herbicidal activity, warm season; format: in vivo, Digitaria sanguinalis; settings: GR80 = lowest tested rate (300, 100, 30, 10 g/ha) with 80% or greater inhibition; approx. 14 days after treating; 30/21° C.
Method in brief: (§1)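 Each pot received seeds on sterilized fertilized topsoil, a soil cover, and a surface spray of compound (300–10 g/ha, acetone/water 50:50). Plants grew about 14 days at 30/21 °C (PANMI, DIGSA) or 18/13 °C (ALOMY, POLCO) before inhibition was rated against untreated pots to give GR80.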

[2] = tested on: PANMI (wild proso millet); assay: Pre-emergence herbicidal activity, warm season; format: in vivo, Panicum miliaceum; settings: GR80 = lowest tested rate (300, 100, 30, 10 g/ha) with 80% or greater inhibition; approx. 14 days after treating; 30/21° C.
Method in brief: as §1

[3] = tested on: GALAP (catchweed bedstraw); assay: Pre-plant incorporated (PPI) herbicidal activity, cool season; format: in vivo, Galium aparine
Procedure: (§2) In another set of tests, the pre-plant incorporated (PPI) activity of compounds of this invention was evaluated on the same species as for the pre-emergence tests described above. In the PPI tests the following procedure, designed to simulate PPI application, was used.
(§3) A pre-prepared topsoil mixture (described above) was placed in a pot and compacted to a depth of 1.0 to 1.25 cm from the top of the pot. Seeds of each of several monocotyledonous and dicotyledonous annual plant species were placed on top of the soil. A sufficient quantity of soil to cover the seeds and level fill the pot was weighed into an open container. A known amount of the test compound was dissolved or suspended in an organic solvent and applied by spraying to this cover soil. The cover soil was thoroughly mixed to distribute the test compound throughout the cover soil, and was then applied as a cover layer over the seeds. Untreated soil was used as a cover layer for control pots. After treatment the plants were placed in a greenhouse where they received 0.64 cm of overhead irrigation. All subsequent watering consisted of a light overhead mist and/or subirrigation as needed for germination and growth. Tables 9 and 10 below relate to warm season plant species which were placed after pre-emergence treatment in a greenhouse with a 30/21° C. day/night temperature regime. Tables 11 and 12 below relates to cool season plant species placed after pre-emergence treatment in a greenhouse or growth chamber with an 18/13° C. day/night temperature regime. Only the compounds of Examples 1, 6, 8, 11, 13 and 15-20 were included in PPI tests.
(§4) Approximately 14 days after planting and treating, the plants were observed and herbicidal efficacy recorded as percent inhibition by comparison with untreated plants.

DIGSA (large crabgrass) [4] = assay: Pre-plant incorporated (PPI) herbicidal activity, warm season; format: in vivo, Digitaria sanguinalis
Procedure: as §2, §3, §4

SETVI (green foxtail) = assay: Pre-emergence herbicidal activity, cool season; format: in vivo, Setaria viridis; settings: GR80 = lowest tested rate (300, 100, 30, 10 g/ha) with 80% or greater inhibition; approx. 14 days after treating; 18/13° C.
Method in brief: (§5)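 Seeds sown in sterilised fertilised topsoil received surface-applied compound in 50:50 acetone/water, typically at 300, 100, 30 and 10 g/ha, then greenhouse-grown at 30/21° C (warm-season species) or 18/13° C (cool-season species). Percent inhibition versus untreated plants was scored at about 14 days, giving GR80; an asterisk marks activity short of 80% at the top rate.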

[5] = tested on: BRAPP (broadleaf signalgrass); assay: Pre-emergence herbicidal activity, warm season; format: in vivo, Brachiaria platyphylla; settings: GR80 = lowest tested rate (300, 100, 30, 10 g/ha) with 80% or greater inhibition; approx. 14 days after treating; 30/21° C.
Method in brief: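 Activity is expressed as the rate giving 80% inhibition, with 300, 100, 30 and 10 g/ha typically tested. An asterisk marks activity short of 80% at the top rate. Warm-season grasses were held at 30/21 °C; cool-season blackgrass and wild buckwheat at 18/13 °C; scoring at about 14 days.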

POAAN (annual bluegrass) = assay: Pre-plant incorporated (PPI) herbicidal activity, cool season; format: in vivo, Poa annua; settings: Poa annua, weed, PPI application, read-out: Percent inhibition POAAN
Procedure: as §2, §3, §4

POROL (common purslane) = assay: Pre-emergence herbicidal activity, warm season; format: in vivo, Portulaca oleracea; settings: GR80 = lowest tested rate (300, 100, 30, 10 g/ha) with 80% or greater inhibition; approx. 14 days after treating; 30/21° C.
Method in brief: as §5

[6] = tested on: AGSST (creeping bentgrass); assay: Pre-emergence herbicidal activity, cool season; format: in vivo, Agrostis stolonifera; settings: GR80 = lowest tested rate (300, 100, 30, 10 g/ha) with 80% or greater inhibition; approx. 14 days after treating; 18/13° C.
Method in brief: as §5

[7] = tested on: AGRRE (quackgrass (seedling)); assay: Pre-plant incorporated (PPI) herbicidal activity, cool season; format: in vivo, Elymus repens
Procedure: as §2, §3, §4

AMARE (redroot pigweed) = assay: Pre-emergence herbicidal activity, warm season; format: in vivo, Amaranthus retroflexus; settings: GR80 = lowest tested rate (300, 100, 30, 10 g/ha) with 80% or greater inhibition; approx. 14 days after treating; 30/21° C.
Method in brief: as §5

[8] = tested on: AEGCY (jointed goatgrass); assay: Pre-plant incorporated (PPI) herbicidal activity, cool season; format: in vivo, Aegilops cylindrica
Procedure: as §2, §3, §4

LOLMG (annual ryegrass) = assay: as above; format: in vivo, Lolium multiflorum
Procedure: as §2, §3, §4

[9] = pre-plant incorporated, lowest tested rate with 80% or greater inhibition, about 14 days

With C=C(C)CC(F)(F)S(=O)(=O)c1ncn(C(=O)N(CC)CC)n1 [Example 18] the “Pre-emergence activity (GR80) DIGSA” value (DIGSA (large crabgrass) [1]) was 100 g/ha, the “Pre-emergence activity (GR80) PANMI” value [2] was 30 g/ha and the inhibition at 10 g/ha ([3]; Galium aparine, weed, PPI application, 10 g/ha, read-out: Percent inhibition GALAP) was 70%. For the same molecule, the inhibition at 30 g/ha ([3]; Galium aparine, weed, PPI application, 30 g/ha, read-out: Percent inhibition GALAP) was 60%, the inhibition at 100 g/ha ([3]; Galium aparine, weed, PPI application, 100 g/ha, read-out: Percent inhibition GALAP) was 70% and the inhibition at 300 g/ha ([3]; Galium aparine, weed, PPI application, 300 g/ha, read-out: Percent inhibition GALAP) was 100%. For the same molecule, the inhibition at 900 g/ha ([3]; Galium aparine, weed, PPI application, 900 g/ha, read-out: Percent inhibition GALAP) was 100%, the “PPI activity GR80, GALAP” value [3, 9] was 100 g/ha and the inhibition at 10 g/ha (DIGSA (large crabgrass) [4]; Digitaria sanguinalis, PPI application, 10 g/ha, read-out: Percent inhibition DIGSA) was 20%. It also gave an inhibition at 30 g/ha (DIGSA (large crabgrass) [4]; Digitaria sanguinalis, PPI application, 30 g/ha, read-out: Percent inhibition DIGSA) of 80%, an inhibition at 100 g/ha (DIGSA (large crabgrass) [4]; Digitaria sanguinalis, PPI application, 100 g/ha, read-out: Percent inhibition DIGSA) of 80% and an inhibition at 300 g/ha (DIGSA (large crabgrass) [4]; Digitaria sanguinalis, PPI application, 300 g/ha, read-out: Percent inhibition DIGSA) of 100%. For the same molecule, the inhibition at 900 g/ha (DIGSA (large crabgrass) [4]; Digitaria sanguinalis, PPI application, 900 g/ha, read-out: Percent inhibition DIGSA) was 100%, the “PPI activity GR80, DIGSA” value (DIGSA (large crabgrass) [4]; [9]) was 30 g/ha and the “Pre-emergence activity (GR80) SETVI” value (SETVI (green foxtail)) was 30 g/ha. For the same molecule, the “Pre-emergence activity (GR80) BRAPP” value [5] was 300 g/ha, the inhibition at 10 g/ha (POAAN (annual bluegrass); 10 g/ha) was 20% and the inhibition at 30 g/ha (POAAN (annual bluegrass); 30 g/ha) was 50%. The inhibition at 100 g/ha (POAAN (annual bluegrass); 100 g/ha) was 65%, the inhibition at 300 g/ha (POAAN (annual bluegrass); 300 g/ha) was 80% and the inhibition at 900 g/ha (POAAN (annual bluegrass); 900 g/ha) was 100%. For the same molecule, the “Pre-emergence activity (GR80) POROL” value (POROL (common purslane)) was 100 g/ha, the “Pre-emergence activity (GR80) AGSST” value [6] was 30 g/ha and the inhibition at 10 g/ha ([7]; Elymus repens, weed, PPI application, 10 g/ha, read-out: Percent inhibition AGRRE) was 0%. It also gave an inhibition at 30 g/ha ([7]; Elymus repens, weed, PPI application, 30 g/ha, read-out: Percent inhibition AGRRE) of 30%, an inhibition at 100 g/ha ([7]; Elymus repens, weed, PPI application, 100 g/ha, read-out: Percent inhibition AGRRE) of 20% and an inhibition at 300 g/ha ([7]; Elymus repens, weed, PPI application, 300 g/ha, read-out: Percent inhibition AGRRE) of 20%. The inhibition at 900 g/ha ([7]; Elymus repens, weed, PPI application, 900 g/ha, read-out: Percent inhibition AGRRE) was 80%, the “PPI activity GR80, AGRRE” value [7, 9] was 100 g/ha and the “Pre-emergence activity (GR80) AMARE” value (AMARE (redroot pigweed)) was 300 g/ha. For the same molecule, the inhibition at 10 g/ha ([8]; Aegilops cylindrica, weed, PPI application, 10 g/ha, read-out: Percent inhibition AEGCY) was 0%, the inhibition at 30 g/ha ([8]; Aegilops cylindrica, weed, PPI application, 30 g/ha, read-out: Percent inhibition AEGCY) was 0% and the inhibition at 100 g/ha ([8]; Aegilops cylindrica, weed, PPI application, 100 g/ha, read-out: Percent inhibition AEGCY) was 0%. For the same molecule, the inhibition at 300 g/ha ([8]; Aegilops cylindrica, weed, PPI application, 300 g/ha, read-out: Percent inhibition AEGCY) was 20%, the inhibition at 900 g/ha ([8]; Aegilops cylindrica, weed, PPI application, 900 g/ha, read-out: Percent inhibition AEGCY) was 10% and the “PPI activity GR80, AEGCY” value [8, 9] was “* (activity observed, at least at highest rate, but <80% inhibition)”. For the same molecule, the inhibition at 10 g/ha (LOLMG (annual ryegrass); Lolium multiflorum, weed, PPI application, 10 g/ha, read-out: Percent inhibition LOLMG) was 20%, the inhibition at 30 g/ha (LOLMG (annual ryegrass); Lolium multiflorum, weed, PPI application, 30 g/ha, read-out: Percent inhibition LOLMG) was 60% and the inhibition at 100 g/ha (LOLMG (annual ryegrass); Lolium multiflorum, weed, PPI application, 100 g/ha, read-out: Percent inhibition LOLMG) was 50%. The inhibition at 300 g/ha (LOLMG (annual ryegrass); Lolium multiflorum, weed, PPI application, 300 g/ha, read-out: Percent inhibition LOLMG) was 100%, the inhibition at 900 g/ha (LOLMG (annual ryegrass); Lolium multiflorum, weed, PPI application, 900 g/ha, read-out: Percent inhibition LOLMG) was 100% and the “PPI activity GR80, LOLMG” value (LOLMG (annual ryegrass); [9]) was 100 g/ha.
